{"source": "patent US20260256741A1", "about": "“ANTICANCER MALEIMIDE DERIVATIVES FOR USE WITH IMMUNE CHECKPOINT BLOCKADE” (BROWN UNIVERSITY, priority 2022, published 2026)", "key": {"[1]": {"test_system": "SW480 tumor cells", "test": "Multicolor co-culture of SW480 tumor cells and donor-derived CD8+ T cells, EthD-1 dead cells", "type": "cell-based, human", "details": "for percentage of dead cells (average, normalized): then co-culture with donor-derived CD8+ T cells; for percentage of dead cells out of total cells (average, normalized): co-culture with donor-derived CD8+ T cells, 24 hours", "procedure": "An Easy Step Human CD8+ T Cell Isolation Kit was used to isolate CD8+ T cells from a donor PBMC sample via negative selection (Cat #, 17913, Stem Cell Technologies, Vancouver, Canada).\n10,000 HCT-116, SW480, or HT-29 cells were plated per well in a clear-bottom, black-walled 48-well tissue culture plate and were allowed to adhere overnight. Cells were subsequently treated with DMSO, 5 μM or 10 μM elraglusib, and/or 10,000 TALL-104 or NK-92 cells (for an effector-to-tumor ratio of 1:1) for 24 hours. CRC cells were labeled using CellTracker™ Green CMFDA (5-chloromethylfluorescein diacetate), immune cells (NK-92, TALL-104) were labeled using CellTracker™ Blue CMAC Dye (7-amino-4-chloromethylcoumarin), and ethidium homodimer-1 (EthD-1) was used as a marker of cell death (Invitrogen, Waltham, MA). 10× images were captured using a Nikon Ti-U Inverted Fluorescence Microscope and NIS-Elements F Package imaging software 3.22.00 Build 710 (Nikon Instruments Inc, USA). The number of red/green color cells in random fields was determined using thresholding and particle analysis in the Fiji modification (RRID: SCR_002285) of ImageJ and expressed as a dead/live cell ratio. Normalization was carried out by subtracting the percentage of cell death due to drug or vehicle control (DMSO) only from the percentage of dead cells observed in the co-culture of tumor and immune cells treated with the drug. At least 100 cells were evaluated per sample, with 3 independent replicates. Statistical analysis was done using GraphPad Prism 9 (RRID: SCR_002798)."}, "[2]": {"test": "Tolerability in the CT-26 BALB/c model (body weight, blood count, serum chemistry)", "parameters": "species or system BALB/c mice", "details": "mouse, in vivo", "procedure": "The experimental in vivo protocol (Protocol #19-01-003) was approved by the Institutional Animal Care and Use Committee of Brown University (Providence, RI, USA). Six to 7 weeks-old female BALB/c mice (RRID: IMSR_JAX:000651) were purchased from Taconic. 50,000 cells were suspended in 50 μL ice-cold PBS and 50 μL Matrigel (Catalog # 354234, Corning, New York, USA), and 100 uL was injected subcutaneously into the rear flanks. Once tumor volume reached at least 100 mm^3, mice were randomly assigned to one of seven groups (3 mice/group): Control (isotype), elraglusib, elraglusib+Isotype, anti-PD-1, anti-PD-L1, elraglusib+anti-PD-1, and elraglusib+anti-PD-L1. All treatments were delivered by IP injection on the following dosing schedule: Isotype (70 mg/kg, twice a week), elraglusib (70 mg/kg, twice a week), anti-PD-1 (10 mg/kg, twice a week), anti-PD-L1 (10 mg/kg, twice a week). The treatment continued until mice developed signs of discomfort from excessive tumor growth. Mice were weighed once a week to monitor signs of drug toxicity. The length (L) and width (W) of the masses were measured three times per week with a digital caliper, and the tumor volume was calculated by applying the formula: 0.5LW2. Collection of whole blood and serum was performed by cardiac puncture and sent to Antech GLP for blood cell count and chemistry tests, or in-house cytokine profiling. […]"}, "[3]": {"test_system": "NK-92 cells", "test": "10x single-cell sequencing, NK-92", "type": "cell-based, human", "details": "1 μM, 24 hours vs DMSO", "procedure": "Single cells were captured and 3′ single-cell gene expression libraries were conducted (Next GEM v3.1) using the 10× Genomics Chromium system by SingulOmics (SingulOmics, New York, NY, USA). Gene expression libraries were sequenced with ~200 million PE150 reads per sample on Illumina (RRID: SCR_016387) NovaSeq (Illumina, Inc., San Diego, CA, USA). After sequencing clean reads were then analyzed with human reference genome GRCh38 using Cell Ranger v6.1.2 ([RRID: SCR_017344],10× Genomics, Pleasanton, CA, USA). Data were analyzed and visualized using Loupe Browser ([RRID: SCR_018555], 10× Genomics, Pleasanton, CA, USA)."}}, "data": [{"smiles": "Cn1cc(C2=C(c3coc4ccc(F)cc34)C(=O)NC2=O)c2cc3c(cc21)OCO3", "note": "[elraglusib, 3-(5-fluorobenzofuran-3-yl)-4-(5-methyl-5H-[1,3]dioxolo[4,5-f]indol-7-yl)-1H-pyrrole-2,5-dione]", "values": [{"measurement": "percentage of dead cells (average, normalized)", "setting": "[1]; 10 μM for 24 hours", "value": 70, "unit": "%"}, {"measurement": "percentage of dead cells out of total cells (average, normalized)", "setting": "[1]; 5 μM", "value": 65, "unit": "%"}, {"measurement": "percentage of dead cells out of total cells (average, normalized)", "setting": "[1]; 10 μM", "value": 75, "unit": "%"}, {"measurement": "tumor cell death in SW480 monocultures", "setting": "[1]; drug only, no immune cells", "value": "limited tumor cell death"}, {"measurement": "percentage of dead cells (average, normalized)", "setting": "[1]; tumor cells pre-treated with 5 μM for 24 hours", "value": 65, "unit": "%"}, {"measurement": "renal function (BUN, creatinine, electrolytes)", "setting": "[2]", "value": "maintained normal renal function"}, {"measurement": "immune cell activation marker CD69 expression", "setting": "[3]", "value": "increase"}, {"measurement": "immune cell attractant CCL4 expression", "setting": "[3]", "value": "increase"}, {"measurement": "immunosuppressive marker CHI3L1 expression", "setting": "[3]", "value": "decrease"}]}]}
